Measured values published in patent US10238631B2, “Sesquiterpene derivatives and their use in inflammation or cancer treatment” (Academia Sinica, priority 2014, dated 2019).
“And” between values parts separate entries of the source, which are not always exact repeats. Identical values can stand only once. Like-named read-outs stand apart in the source and are kept apart here.

How the values were obtained:
MDA-MB-231 cells [1] = assay: Compound-drug combination assay with PTX; type: cell-based, human; settings: 0-4 μM compound, 0-25 nM PTX
Procedure: Cell proliferation was measured by MTT assay. Isobologram analysis and Chou-Talalay method was used to determine the effects of compound drug combinations. The interaction of DETDs and PLX4032 or PTX was determined by the combination index (CI), and the CI plot was generated using CompuSyn software. The combined effects of two compounds can be categorized as follows: CI=1 indicates additive interaction, CI<1 indicates synergism, and CI>1 indicates antagonism.
To investigate whether or not DETD-35 and DETD-39 act synergistically with PTX against MDA-MB-231 cell activity, anti-proliferation assay using MTT reagent was performed to obtain the IC60 value of each compound. […] Based on the IC60 values, DETD-35 or DETD-39 ranging from 0 to 4 μM and PIX from 0 to 25 nM were used for compound-drug combination study. Classic isobologram analysis and Chou-Talalay method were conducted to investigate the synergistic effect of compound and drug. Combination index (CI) was calculated with CalcuSyn software (Version 2.0, Biosoft) and expressed as CI vs. Fa (fraction affected). CI<1 indicates synergy; CI=1 indicates additive effect; and CI>1 indicates antagonism.

HTB-68 (NRAS mutation) = assay: MTT cell viability assay, HTB-68 melanoma; type: cell-based, human; settings: Homo sapiens, 24 h
Outline: (§1)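 Viability is determined colorimetrically with MTT after a 24 h to 72 h compound treatment. Vehicle wells containing 0.5% DMSO define 100% viability, and treated OD570 values are expressed relative to them.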

[2] = system: RAW264.7 (normal macrophage); assay: MTT cell viability assay, RAW264.7 macrophages; type: cell-based, mouse; settings: Mus musculus, RAW264.7, 24 h
Outline: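 RAW264.7 macrophages (2×10^5 cells/well) pretreated with compounds 1 h, then incubated 24 h with or without 100 ng/μL LPS. Viability by MTT colorimetric assay run in parallel with Griess nitrite measurement.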

[3] = system: NES-SA uterus cancer cell line; assay: MTT cell viability assay, NES-SA; type: cell-based; settings: 24 h
Procedure: (§2) Normal or cancer cells (2×10^3 to 1×10^4 cells/well) were seeded in 96-well plate for overnight and treated with different compounds for 24 h to 72 h. Cells growth were determined by MTT-based colorimetric assays according to. Viability of the test cells treated with vehicle (0.5% DMSO) only was defined as 100% viable. Survival of cells after treatment with DETDs was calculated using the following formula: viable cell number (%)=OD570 (treated cell culture)/OD570 (vehicle control)×100.
(§3) Based on toxicity results of DET and DETDs on different breast cancer and melanoma cell lines, we selected DETD-6, -32, -35 and -39, under the consideration of structure activity relationship for evaluating their suppression effect against other cancer types of cell line with indicated tumor origin in Table 5. […] The cells were treated with compounds for 24 h and then subjected to MTT assays.

[4] = system: MCF-7 (ER+, Her2−) human breast cancer cells; assay: MTT cell viability assay, MCF-7 cells; type: cell-based
Outline: (§4)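 Viability is scored colorimetrically by MTT after cells, plated at 2×10^3 to 1×10^4 per well the night before, receive compounds for 24 h to 72 h; 0.5% DMSO-treated wells define 100%.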

[5] = system: MeWo (No NRAS or BRAF mutation); assay: MTT cell viability assay, MeWo melanoma; type: cell-based, human; settings: Homo sapiens, MeWo, 24 h
Outline: as §1

[6] = system: melanoma cell lines B16-F10, MeWo, A375, A2058, HTB-68; assay: MTT cell viability assay, all melanoma cell lines; type: cell-based; settings: 24 h, read-out: IC50 values over all types of melanoma cell lines
Procedure: as §2
Several genes are involved in melanoma development and pathology; specifically, mutation in V-raf murine sarcoma viral oncogene homolog B1 (B-RAF) occurs approximately 50-60% and in neuroblastoma RAS viral oncogene homolog (N-RAS) occurs about 30% of malignant melanomas. A spectrum of wild-type or mutated melanoma cell lines including B16-F10, MeWo, A375, A2058, HTB-68, and melanocyte were used to study anti-melanoma cell proliferation activity of parental phytocompound DET and newly synthesized DETDs.

[7] = system: M10 normal mammary epithelial cells; assay: MTT cell viability assay, M10 normal cells; type: cell-based, human; settings: 24 h
Outline: as §4

[8] = system: A498 kidney cancer cell line; assay: MTT cell viability assay, A498; type: cell-based; settings: Homo sapiens, 24 h
Procedure: as §2, §3

[9] = system: SK-N-MC neuroepithelioma line; assay: MTT cell viability assay, SK-N-MC; type: cell-based; settings: Homo sapiens, 24 h
Procedure: as §2, §3

[10] = system: Melanocyte (Normal cells); assay: MTT cell viability assay, normal melanocytes; type: cell-based, human; settings: Homo sapiens, Melanocyte, 24 h
Outline: as §1

[11] = system: MDA-MB-231 (ER−, PR−, Her2−) human breast cancer cells; assay: MTT cell viability assay, MDA-MB-231 cells; type: cell-based; settings: for IC50: Homo sapiens
Outline: as §4

[12] = system: TS/A (ER+, Her2−) murine mammary cancer cells; assay: MTT cell viability assay, TS/A cells; type: cell-based; settings: Mus musculus
Outline: as §4

[13] = system: PC6 lung cancer cell line; assay: MTT cell viability assay, PC6; type: cell-based; settings: 24 h
Procedure: as §2, §3

[14] = system: U-87MG brain cancer cell line; assay: MTT cell viability assay, U-87MG; type: cell-based; settings: Homo sapiens, 24 h
Procedure: as §2, §3

U937 lymphoma line = assay: MTT cell viability assay, U937; type: cell-based; settings: Homo sapiens, U-937, 24 h
Procedure: as §2, §3

B16-F10 (NRAS mutation) = assay: MTT cell viability assay, B16-F10 melanoma; type: cell-based; settings: Mus musculus, B16-F10, 24 h
Outline: as §1

A2058 (BRAF mutation) = assay: MTT cell viability assay, A2058 melanoma; type: cell-based, human; settings: Homo sapiens, A2058, 24 h
Outline: as §1

[15] = system: KATO III stomach cancer cell line; assay: MTT cell viability assay, KATO III; type: cell-based; settings: Homo sapiens, 24 h
Procedure: as §2, §3

[16] = system: LPS-induced nitric oxide (NO) production in RAW 264.7 cells; assay: Nitric oxide production in LPS-stimulated macrophages (Griess); type: cell-based, mouse
Outline: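 RAW 264.7 macrophages (2×10^5 cells/well) were pretreated with compound for 1 h and then stimulated with 100 ng/μL LPS for 24 h. NO was measured as nitrite in the medium by the Griess reaction. Viability was checked in parallel by MTT.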

[17] = system: HCT-116 colon cancer cell line; assay: MTT cell viability assay, HCT-116; type: cell-based; settings: Homo sapiens, 24 h
Procedure: as §2, §3

A375 (BRAF mutation) = assay: MTT cell viability assay, A375 melanoma; type: cell-based, human; settings: Homo sapiens, MTT
Outline: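 A375 cells were seeded at 2×10^3 to 1×10^4 per well overnight and then exposed to compounds for 24 h to 72 h. Viability was measured by MTT absorbance at OD570 relative to 0.5% DMSO vehicle (100%), and IC50 was derived from it. Combination with PLX4032 was scored by combination index.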

PC3 (Prostate) = assay: MTT cell viability assay, PC3; type: cell-based; settings: 24 h
Procedure: as §2, §3

MDA-MB-231 cells [18] = system: MDA-MB-231 cells
Procedure: Briefly, cells (5×10^3 cells/well) were seeded in 96-well plates and treated with BSO at concentrations 100 μM, 45 μM, 18 μM, 7.2 μM, 2.8 μM, 1.15 μM, 461 nM, 184 nM, 74 nM and 29 nM, and sulfasalazine at concentrations 62.75 μM, 25.10 μM, 10 μM, 4 μM, 1.6 μM, 642 nM, 257 nM, 102 nM, 41 nM and 16.4 nM for 30 h, and then 12 μM DET or 3 μM DETD-35 were added in the cultural medium to treat the cells for another 24 h. Cell proliferation was measured by MIT assay.

[19] = system: DMBA/TPA-induced skin papillomas accelerated by PLX4032
Procedure: Dorsal skin of six weeks old female FVB/N mice were shaved and treated with topical application of DMBA (25 μg in 100 μL acetone). One week after DMBA treatment, the same skin area were treated topically twice weekly with 12-O-tetradecanoylphorbol-13-acetate (TPA) (4 μg in 100 μL acetone). The area was regularly shaved and tumor formation was assessed twice weekly, and tumors were defined as raised lesions of a minimum diameter of 1 mm.

[20] = system: A375 human melanoma tumor; assay: A375 melanoma xenograft model in NOD/SCID mice; type: in vivo, mouse; settings: 20 mg/kg i.p.; PLX4032 every day, DET and DETD-35 every two days
Procedure: (§5) A375 and A375-R melanoma cells (3×10^6) were injected subcutaneously to the flanks of the six weeks old NOD/SCID mice. One week after the inoculation, the mice were randomized into treated groups (n=8 per group) and the treatments were started. Body weight and tumor volume of the mice were recorded every three days using formula a×b^2×0.5, where a and b represented the larger and smaller tumor diameters.
We used A375 human melanoma xenograft model to evaluate the in vivo bioefficacy of DET. DETD-35, PLX4032 and compound drug combination. […] For single compound or drug treatment group, PLX4032 was administered i.p. every day and DET and DETD-35 were administered i.p. every two days. For combination treatment, PLX4032 was administered every two days while DET and DETD-35 were administered every four days. […] Compound-drug combinational treatments were carried out with alternative administration of DET (20 mg/kg) or DETD-35 (20 mg/kg) and PLX4032 (20 mg/kg) by which DET or DETD-35 and PLX4032 treatment frequency were only half of the single compound or drug administration alone.

[21] = system: A375-R PLX4032-resistant melanoma tumor; assay: A375-R melanoma xenograft model in NOD/SCID mice; type: in vivo, mouse; settings: PLX4032 75 mg/kg
Procedure: as §5
To study whether or not DETD-35 could overcome acquired resistance to BRAF inhibitor, we generated A375 cell line resistant to PLX4032 (designated A375-R) as described above. We then conducted A375-R orthotopic xenograft study.

[22] = system: A375-R acquired vemurafenib resistance melanoma cells; assay: MTT cell viability assay, PLX4032-resistant A375-R; type: cell-based, human; settings: 72 h
Procedure: A375-R, acquired vemurafenib resistance melanoma cell was generated from A375 parental cell and grown in same conditions as A375 cell.
as §2
To study the mechanisms underlying how DETD-35 overcomes acquired resistance to BRAF inhibitor, we generated A375 cell line resistant to PLX4032 (designated A375-R). Briefly, A375 melanoma cells were seeded in T75 plate and treated with ascending concentration of PLX4032 (20, 50, 100, 250, 500, 1000, 2000 nM) through approximately 2 months and 20 passages.

[23] = DMBA/TPA + PLX4032 20 mg/kg i.p. twice per week

C=C1C(=O)OC2CC3=C[C@@H](C/C(C)=C/C(OC(=O)/C=C/c4cccc(OC)c4)[C@H]12)OC3=O (stereo partly drawn) [DETD-39]
combination effect with PTX (isobologram, combination index) (MDA-MB-231 cells [1]): acted synergistically
IC50 (HTB-68 (NRAS mutation)): 3200 nM
IC50 [2]: 3500 nM
IC50 [3]: 140 nM
IC50 ([4]; MCF7, 24 h, read-out: IC50 on cell viability, MCF-7 (ER+, Her2−)): 2100 nM
IC50 ([4]; MCF7, Table 5, 24 h, read-out: IC50 viability MCF-7 (Breast)): 2400 nM
IC50 [5]: 3500 nM
IC50 [6]: 1600 to 9900 nM and 1600 to 3500 nM
IC50 on cell viability, M10 (normal) [7]: some toxicity
IC50 ([7]; Homo sapiens, Epithelial cell): 3700 nM
IC50 [8]: 480 nM
IC50 [9]: 110 nM
IC50 [10]: 9000 nM
IC60 on MDA-MB-231 cells ([11]; 24 h): 3790 nM
IC50 ([11]; MDA-MB-231, 24 h, read-out: IC50 on cell viability, MDA-MB-231 (ER−, PR−, Her2−)): 1900 nM
IC50 ([11]; MDA-MB-231, Table 5, 24 h, read-out: IC50 viability MDA-MB-231 (Breast)): 1900 nM
IC50 ([12]; 24 h, read-out: IC50 on cell viability, TS/A (ER+, Her2−)): 800 nM
IC50 ([12]; Table 5, 24 h, read-out: IC50 viability TS/A (mouse) (Breast)): 800 nM
IC50 [13]: 110 nM
IC50 [14]: 150 nM
IC50 (U937 lymphoma line): 100 nM
IC50 (B16-F10 (NRAS mutation); 24 h, read-out: IC50 on cell viability, B16-F10 (NRAS mutation)): 1700 nM
IC50 (B16-F10 (NRAS mutation); Table 5, 24 h, read-out: IC50 viability B16-F10 (mouse) (Skin)): 1700 nM
IC50 (A2058 (BRAF mutation)): 2400 nM
IC50 [15]: 290 nM
fold decrease in IC50 of NO production vs DET [16]: 3 fold
IC50 ([16]; Mus musculus, LPS-stimulated RAW264.7, nitrite 24 h after LPS): 1000 nM
IC50 [17]: 100 nM
IC50 (A375 (BRAF mutation); A-375, 24 h, 24 h, read-out: IC50 on cell viability, A375 (BRAF mutation)): 1600 nM
IC50 (PC3 (Prostate)): 2600 nM

CCCCS(=N)(=O)CCC(N)C(=O)O (stereo not drawn) [BSO, buthionine sulfoximine]
cytotoxicity of blocker alone (MDA-MB-231 cells [18]): did not show any cytotoxicity

CCCS(=O)(=O)Nc1ccc(F)c(C(=O)c2c[nH]c3ncc(-c4ccc(Cl)cc4)cc23)c1F [PLX4032, Vemurafenib]
start of papillomas formation ([19]; DMBA-TPA treated mice + PLX4032, without PLX4032 week 6 to 7): 3 to 4 weeks
papillomas size in average [19, 23]: 77.6 mm^3
total papillomas number [19, 23]: 25.6
reduction of tumor mass vs tumor control [20]: 71.9%
tumor growth rate and size relative to control group (100%) [21]: 98%
fold less sensitive, A375-R vs parental A375 [22]: more than 100 fold
IC50 ([22]; Homo sapiens, MTT): 8300 nM
IC50 (A375 (BRAF mutation); A-375, 72 h, 72 h, read-out: IC50 on A375 cells): 70 nM
